Tested on: HCV 1b-Con1 replicon
Test: HCV 1b-Con1 replicon assay in the presence of 5% FBS
Assay type: cell-based
Conditions: Hepatitis C virus

Row | SMILES | EC50 [pM]
1 | COC(=O)N[C@H](C(=O)N1CCC[C@H]1c1nc2cc([C@H]3CC[C@H](c4ccc5nc([C@@H]6CCCN6C(=O)[C@@H](NC(=O)OC)C(C)C)[nH]c5c4)N3c3ccc(C4CCCCC4)c(F)c3)ccc2[nH]1)C(C)C [Example 4.8, methyl {(2S)-1-[(2S)-2-{5-[(2R,5R)-1-(4-cyclohexyl-3-fluorophenyl)-5-{2-[(2S)-1-{(2S)-2-[(methoxycarbonyl)amino]-3-methylbutanoyl}pyrrolidin-2-yl]-1H-benzimidazol-6-yl}pyrrolidin-2-yl]-1H-benzimidazol-2-yl}pyrrolidin-1-yl]-3-methyl-1-oxobutan-2-yl}carbamate] | < 100
2 | COC(=O)N[C@H](C(=O)N1CCC[C@H]1c1nc2cc([C@H]3CC[C@H](c4cc5nc([C@@H]6CCCN6C(=O)[C@@H](NC(=O)OC)C(C)C)[nH]c5cc4F)N3c3cc(F)c(N4CCN(c5ccc(C(F)(F)F)cc5)CC4)c(F)c3)c(F)cc2[nH]1)C(C)C [Example 4.42, methyl {(2S)-1-[(2S)-2-{5-[(2R,5R)-1-(3,5-difluoro-4-{4-[4-(trifluoromethyl)phenyl]piperazin-1-yl}phenyl)-5-{6-fluoro-2-[(2S)-1-{(2S)-2-[(methoxycarbonyl)amino]-3-methylbutanoyl}pyrrolidin-2-yl]-1H-benzimidazol-5-yl}pyrrolidin-2-yl]-6-fluoro-1H-benzimidazol-2-yl}pyrrolidin-1-yl]-3-methyl-1-oxobutan-2-yl}carbamate] | < 100
3 | COC(=O)N[C@H](C(=O)N1CCC[C@H]1c1nc2cc([C@H]3CC[C@H](c4ccc5[nH]c([C@@H]6CCCN6C(=O)[C@@H](NC(=O)OC)C(C)C)nc5c4)N3c3cc(F)c(N4CCN(c5ccccc5)CC4)c(F)c3)ccc2[nH]1)C(C)C [Example 4.58, methyl {(2S)-1-[(2S)-2-{5-[(2R,5R)-1-[3,5-difluoro-4-(4-phenylpiperazin-1-yl)phenyl]-5-{2-[(2S)-1-{(2S)-2-[(methoxycarbonyl)amino]-3-methylbutanoyl}pyrrolidin-2-yl]-1H-benzimidazol-5-yl}pyrrolidin-2-yl]-1H-benzimidazol-2-yl}pyrrolidin-1-yl]-3-methyl-1-oxobutan-2-yl}carbamate] | < 100
4 | COC(=O)N[C@H](C(=O)N1CCC[C@H]1c1nc2cc(F)c([C@H]3CC[C@H](c4cc5[nH]c([C@@H]6CCCN6C(=O)[C@@H](NC(=O)OC)C(C)C)nc5cc4F)N3c3cc(F)c(N4CC(C)CC(C)C4)c(F)c3)cc2[nH]1)C(C)C (stereo partly drawn) [Example 2.16, methyl {(2S)-1-[(2S)-2-{5-[(5R)-1-[4-(3,5-dimethylpiperidin-1-yl)-3,5-difluorophenyl]-5-{6-fluoro-2-[(2S)-1-{(2S)-2-[(methoxycarbonyl)amino]-3-methylbutanoyl}pyrrolidin-2-yl]-1H-benzimidazol-5-yl}pyrrolidin-2-yl]-6-fluoro-1H-benzimidazol-2-yl}pyrrolidin-1-yl]-3-methyl-1-oxobutan-2-yl}carbamate] | < 100
5 | COC(=O)N[C@H](C(=O)N1CCC[C@H]1c1nc2cc([C@H]3CC[C@H](c4ccc5[nH]c([C@@H]6CCCN6C(=O)[C@@H](NC(=O)OC)C(C)C)nc5c4)N3c3cc(F)c(N4CCC(C(C)=O)(c5ccccc5)CC4)c(F)c3)ccc2[nH]1)C(C)C [Example 4.17, methyl {(2S)-1-[(2S)-2-{5-[(2R,5R)-1-[4-(4-acetyl-4-phenylpiperidin-1-yl)-3,5-difluorophenyl]-5-{2-[(2S)-1-{(2S)-2-[(methoxycarbonyl)amino]-3-methylbutanoyl}pyrrolidin-2-yl]-1H-benzimidazol-5-yl}pyrrolidin-2-yl]-1H-benzimidazol-2-yl}pyrrolidin-1-yl]-3-methyl-1-oxobutan-2-yl}carbamate] | < 100
6 | COC(=O)N[C@H](C(=O)N1CCC[C@H]1c1nc2cc([C@H]3CC[C@H](c4cc5nc([C@@H]6CCCN6C(=O)[C@@H](NC(=O)OC)C6CCCC6)[nH]c5cc4F)N3c3cc(F)c(N4CCCCC4)c(F)c3)c(F)cc2[nH]1)C1CCCC1 [Example 3.39, dimethyl ({(2R,5R)-1-[3,5-difluoro-4-(piperidin-1-yl)phenyl]pyrrolidine-2,5-diyl}bis{(6-fluoro-1H-benzimidazole-5,2-diyl)(2S)pyrrolidine-2,1-diyl[(1S)-1-cyclopentyl-2-oxoethane-2,1-diyl]})biscarbamate] | < 100
7 | COC(=O)N[C@H](C(=O)N1C[C@@H](OC)C[C@H]1c1nc2cc([C@H]3CC[C@H](c4ccc5[nH]c([C@@H]6C[C@H](OC)CN6C(=O)[C@@H](NC(=O)OC)C(C)C)nc5c4)N3c3cc(F)c(N4CCCCC4)c(F)c3)ccc2[nH]1)C(C)C [Example 3.7, methyl {(2S)-1-[(2S,4S)-2-{5-[(2R,5R)-1-[3,5-difluoro-4-(piperidin-1-yl)phenyl]-5-{2-[(2S,4S)-4-methoxy-1-{(2S)-2-[(methoxycarbonyl)amino]-3-methylbutanoyl}pyrrolidin-2-yl]-1H-benzimidazol-5-yl}pyrrolidin-2-yl]-1H-benzimidazol-2-yl}-4-methoxypyrrolidin-1-yl]-3-methyl-1-oxobutan-2-yl}carbamate] | < 100
8 | COC(=O)N[C@H](C(=O)N1CCC[C@H]1c1nc2cc([C@H]3CC[C@H](c4ccc5[nH]c([C@@H]6CCCN6C(=O)[C@@H](NC(=O)OC)C(C)C)nc5c4)N3c3cc(F)c(N4CCC5(CC4)CC5)c(F)c3)ccc2[nH]1)C(C)C [Example 5.11, methyl {(2S)-1-[(2S)-2-{5-[(2R,5R)-1-[4-(6-azaspiro[2.5]oct-6-yl)-3,5-difluorophenyl]-5-{2-[(2S)-1-{(2S)-2-[(methoxycarbonyl)amino]-3-methylbutanoyl}pyrrolidin-2-yl]-1H-benzimidazol-5-yl}pyrrolidin-2-yl]-1H-benzimidazol-2-yl}pyrrolidin-1-yl]-3-methyl-1-oxobutan-2-yl}carbamate] | < 100
9 | COC(=O)N[C@H](C(=O)N1CCC[C@H]1c1nc2cc([C@H]3CC[C@H](c4ccc5[nH]c([C@@H]6CCCN6C(=O)[C@@H](NC(=O)OC)C(C)C)nc5c4)N3c3cc(F)c(N4CCC5(CCCCC5)CC4)c(F)c3)ccc2[nH]1)C(C)C [Example 5.12, methyl {(2S)-1-[(2S)-2-{5-[(2R,5R)-1-[4-(3-azaspiro[5.5]undec-3-yl)-3,5-difluorophenyl]-5-{2-[(2S)-1-{(2S)-2-[(methoxycarbonyl)amino]-3-methylbutanoyl}pyrrolidin-2-yl]-1H-benzimidazol-5-yl}pyrrolidin-2-yl]-1H-benzimidazol-2-yl}pyrrolidin-1-yl]-3-methyl-1-oxobutan-2-yl}carbamate] | < 100
10 | COC(=O)N[C@H](C(=O)N1CCC[C@H]1c1nc2cc([C@H]3CC[C@H](c4cc5nc([C@@H]6CCCN6C(=O)[C@@H](NC(=O)OC)C(C)C)[nH]c5cc4F)N3c3cc(F)c(N4CCCCC4)c(F)c3)c(F)cc2[nH]1)C(C)C [Example 6.10, methyl {(2S)-1-[(2S)-2-{5-[(2R,5R)-1-[3,5-difluoro-4-(piperidin-1-yl)phenyl]-5-{6-fluoro-2-[(2S)-1-{(2S)-2-[(methoxycarbonyl)amino]-3-methylbutanoyl}pyrrolidin-2-yl]-1H-benzimidazol-5-yl}pyrrolidin-2-yl]-6-fluoro-1H-benzimidazol-2-yl}pyrrolidin-1-yl]-3-methyl-1-oxobutan-2-yl}carbamate] | < 100
11 | COC(=O)N[C@H](C(=O)N1CCC[C@H]1c1nc2cc([C@H]3CC[C@H](c4ccc5[nH]c([C@@H]6CCCN6C(=O)[C@@H](NC(=O)OC)C(C)C)nc5c4)N3c3ccc(OC4COCOC4)cc3)ccc2[nH]1)C(C)C [Example 2.3, methyl {(2S)-1-[(2S)-2-{5-[(2R,5R)-1-[4-(1,3-dioxan-5-yloxy)phenyl]-5-{2-[(2S)-1-{(2S)-2-[(methoxycarbonyl)amino]-3-methylbutanoyl}pyrrolidin-2-yl]-1H-benzimidazol-5-yl}pyrrolidin-2-yl]-1H-benzimidazol-2-yl}pyrrolidin-1-yl]-3-methyl-1-oxobutan-2-yl}carbamate] | 1000 to 10000
12 | COC(=O)N[C@H](C(=O)N1CCC[C@H]1c1nc2cc([C@H]3CC[C@H](c4ccc5[nH]c([C@@H]6CCCN6C(=O)[C@@H](NC(=O)OC)C(C)C)nc5c4)N3c3ccc(N4CCCCC4=O)cc3)ccc2[nH]1)C(C)C [Example 1.2, methyl {(2S)-1-[(2S)-2-(5-{(2R,5R)-5-{2-[(2S)-1-{(2S)-2-[(methoxycarbonyl)amino]-3-methylbutanoyl}pyrrolidin-2-yl]-1H-benzimidazol-5-yl}-1-[4-(2-oxopiperidin-1-yl)phenyl]pyrrolidin-2-yl}-1H-benzimidazol-2-yl)pyrrolidin-1-yl]-3-methyl-1-oxobutan-2-yl}carbamate] | > 10000
13 | CCOc1ccc(N2[C@@H](c3ccc4nc([C@@H]5CCCN5C(=O)[C@@H](NC(=O)OC)C(C)C)[nH]c4c3)CC[C@@H]2c2ccc3nc([C@@H]4CCCN4C(=O)[C@@H](NC(=O)OC)C(C)C)[nH]c3c2)cc1 [Example 4.10, methyl {(2S)-1-[(2S)-2-{6-[(2R,5R)-1-(4-ethoxyphenyl)-5-{2-[(2S)-1-{(2S)-2-[(methoxycarbonyl)amino]-3-methylbutanoyl}pyrrolidin-2-yl]-1H-benzimidazol-6-yl}pyrrolidin-2-yl]-1H-benzimidazol-2-yl}pyrrolidin-1-yl]-3-methyl-1-oxobutan-2-yl}carbamate] | < 100
14 | COC(=O)N[C@H](C(=O)N1CCC[C@H]1c1nc2cc([C@H]3CC[C@H](c4cc5nc([C@@H]6CCCN6C(=O)[C@@H](NC(=O)OC)C6CCOCC6)[nH]c5cc4F)N3c3cc(F)c(N4CCC(c5ccc(F)cc5)CC4)c(F)c3)c(F)cc2[nH]1)C1CCOCC1 [Example 3.53, dimethyl ([(2R,5R)-1-{3,5-difluoro-4-[4-(4-fluorophenyl)piperidin-1-yl]phenyl}pyrrolidine-2,5-diyl]bis{(6-fluoro-1H-benzimidazole-5,2-diyl)(2S)pyrrolidine-2,1-diyl[(1S)-2-oxo-1-(tetrahydro-2H-pyran-4-yl)ethane-2,1-diyl]})biscarbamate] | < 100
